Reference: patent publication US20120277209A1, “PYRAZINE COMPOUNDS AS PHOSPHODIESTERASE 10 INHIBITORS” (Amgen Inc., priority 2009, published 2012)

Target: PDE10 (UniProt Q9Y233)
Assay: PDE10 enzyme inhibition, IMAP TR-FRET assay (MPDE10A7 Enzyme Activity and Inhibition)
Type: biochemical
Settings: IC50 class against PDE10; read-out: IC50
Outline: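 PDE10A enzyme or tissue homogenate preincubated with compounds 30 min at room temperature, then fluorescein-labelled cAMP or cGMP added for 60 min. IMAP binding reagent stop, TR-FRET read. Values are mean IC50s, grouped into five potency classes.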

Structure (SMILES) | IC50 [nM]
c1ccc2sc(Nc3ccc(Oc4nccnc4-c4cncnc4)cc3)nc2c1 [Example 143, N-(4-(3-(pyrimidin-5-yl)pyrazin-2-yloxy)phenyl)benzo[d]thiazol-2-amine] | < 25
CC(C)(O)C1CCN(c2nccnc2Oc2ccc(Nc3nc4ccccc4s3)cc2)CC1 [Example 66, 2-(1-(3-(4-(benzo[d]thiazol-2-ylamino)phenoxy)pyrazin-2-yl)piperidin-4-yl)propan-2-ol] | < 25
c1ccc2sc(Nc3ccc(Oc4nccnc4C4CCOC4)cc3)nc2c1 (stereo not drawn) [Example 221, N-(4-(3-(TETRAHYDROFURAN-3-YL)PYRAZIN-2-YLOXY)PHENYL)BENZO[D]THIAZOL-2-AMINE] | < 25
OC[C@@H]1CCCN1c1nccnc1Oc1ccc(Nc2nc3ccccc3s2)cc1 [Example 76, (S)-(1-(3-(4-(benzo[d]thiazol-2-ylamino)phenoxy)pyrazin-2-yl)pyrrolidin-2-yl)methanol] | < 25
c1ccc2sc(Nc3ccc(Oc4nccnc4-c4cnc5[nH]ccc5c4)cc3)nc2c1 [Example 141, N-(4-(3-(1H-pyrrolo[2,3-b]pyridin-5-yl)pyrazin-2-yloxy)phenyl)benzo[d]thiazol-2-amine] | 25 to 100
O=C1CN(c2nccnc2Oc2ccc(Nc3nc4ccccc4s3)cc2)CCN1 [Example 90, 4-(3-(4-(benzo[d]thiazol-2-yl-amino)phenoxy)pyrazin-2-yl)-piperazin-2-one] | < 25
COCCOc1nccnc1Oc1ccc(C(=O)c2nc3ccccc3[nH]2)cc1 [Example 165, (1H-benzo[d]imidazol-2-yl)(4-(3-(2-methoxyethoxy)pyrazin-2-yloxy)phenyl)methanone] | 250 to 1000
CN(c1ccc(Oc2nccnc2C2CCOCC2)cc1)c1nc2ccccc2s1 [Example 201, N-METHYL-N-(4-(3-(TETRAHYDRO-2H-PYRAN-4-YL)PYRAZIN-2-YLOXY)PHENYL)BENZO[D]THIAZOL-2-AMINE] | < 25
OC1CCCN(c2nccnc2Oc2ccc(Nc3nc4ccccc4s3)cc2)C1 (stereo not drawn) [Example 69, 1-(3-(4-(benzo[d]thiazol-2-ylamino)phenoxy)pyrazin-2-yl)piperidin-3-ol] | < 25
COc1ncccc1-c1nccnc1Oc1ccc(C(=O)c2nc3ccccc3n2C)cc1 [Example 119, (4-(3-(2-methoxypyridin-3-yl)pyrazin-2-yloxy)phenyl)(1-methyl-1H-benzo[d]imidazol-2-yl)methanone] | < 25
Fc1ccc2nc(Nc3ccc(Oc4nccnc4Cl)cc3)sc2c1 [Example 62, N-(4-(3-CHLOROPYRAZIN-2-YLOXY)PHENYL)-6-FLUOROBENZO[D]THIAZOL-2-AMINE] | 1000 to 5000
COc1ncc(F)cc1-c1nccnc1Oc1ccc(C(=O)c2nc3ccccc3[nH]2)cc1 [Example 116, (1H-benzo[d]imidazol-2-yl)(4-(3-(5-fluoro-2-methoxypyridin-3-yl)pyrazin-2-yloxy)phenyl)methanone] | < 25
c1ccc2sc(Nc3ccc(Oc4nccnc4C4CCCOC4)cc3)nc2c1 (stereo not drawn) [Example 193, N-(4-(3-(tetrahydro-2H-pyran-3-yl)pyrazin-2-yloxy)phenyl)benzo[d]thiazol-2-amine] | < 25
COc1ccc(-c2nccnc2Oc2ccc(C(=O)c3nc4ccccc4[nH]3)cc2)c(OC)n1 [Example 111, (1H-benzo[d]imidazol-2-yl)(4-(3-(2,6-dimethoxypyridin-3-yl)pyrazin-2-yloxy)phenyl)methanone] | 25 to 100
Fc1ccc2sc(Nc3ccc(Oc4nccnc4Cl)cc3)nc2c1 [Example 102, N-(4-(3-chloropyrazin-2-yloxy)-phenyl)-5-fluorobenzo[d]thiazol-2-amine] | 1000 to 5000
CC(=O)N1CCC(c2nccnc2Oc2ccc(C(=O)c3nc4ccccc4[nH]3)cc2)CC1 [Example 224, 1-(4-(3-(4-(1H-BENZO[D]IMIDAZOLE-2-CARBONYL)PHENOXY)PYRAZIN-2-YL)PIPERIDIN-1-YL)ETHANONE] | < 25
COc1ccncc1-c1nccnc1Oc1ccc(C(=O)c2nc3ccccc3[nH]2)cc1 [Example 112, (1H-benzo[d]imidazol-2-yl)(4-(3-(4-methoxypyridin-3-yl)pyrazin-2-yloxy)phenyl)methanone] | 25 to 100
O=C(c1ccc(Oc2nccnc2C2=CCOCC2)cc1)c1nc2ncccc2[nH]1 [Example 131, (4-(3-(3,6-dihydro-2H-pyran-4-yl)pyrazin-2-yloxy)phenyl)(1H-imidazo[4,5-b]pyridin-2-yl)methanone] | 25 to 100
O[C@H]1CCC[C@H](c2nccnc2Oc2ccc(Nc3nc4ccccc4s3)cc2)C1 (racemic) [Example 192, (rac)-trans-3-(3-(4-(benzo[d]thiazol-2-ylamino)phenoxy)pyrazin-2-yl)cyclohexanol] | < 25
N#CC1(c2nccnc2Oc2ccc(C(=O)c3nc4ccccc4[nH]3)cc2)CCOCC1 [Example 211, 4-(3-(4-(1H-benzo[d]imidazole-2-carbonyl)phenoxy)pyrazin-2-yl)tetrahydro-2H-pyran-4-carbonitrile] | < 25
COc1nccnc1Oc1ccc(C(=O)c2nc3ccccc3[nH]2)cc1 [Example 160, (1H-benzo[d]imidazol-2-yl)(4-(3-methoxypyrazin-2-yloxy)phenyl)methanone] | 1000 to 5000
CC1CN(c2nccnc2Oc2ccc(Nc3nc4ccccc4s3)cc2)CC(=O)N1 (racemic) [Example 94, 4-(3-(4-(benzo[d]thiazol-2-ylamino)phenoxy)pyrazin-2-yl)-6-methylpiperazin-2-one] | < 25
Clc1ccc(-c2nccnc2Oc2ccc(Nc3nc4ccccc4s3)cc2)cn1 [Example 145, N-(4-(3-(6-chloropyridin-3-yl)pyrazin-2-yloxy)phenyl)benzo[d]thiazol-2-amine] | < 25
Cc1ncccc1-c1nccnc1Oc1ccc(C(=O)c2nc3ccccc3[nH]2)cc1 [Example 109, (1H-benzo[d]imidazol-2-yl)(4-(3-(2-methylpyridin-3-yl)pyrazin-2-yloxy)phenyl)methanone] | 25 to 100
COc1ncccc1-c1nccnc1Oc1ccc(Nc2nc3ccccc3s2)c(F)c1 [Example 157, N-(2-fluoro-4-(3-(2-methoxypyridin-3-yl)pyrazin-2-yloxy)phenyl)benzo[d]thiazol-2-amine] | 25 to 100

Same assay, conditions: PDE10 enzyme inhibition; average IC50 data for each compound; read-out: Average IC50

IC50 [nM] | Structure (SMILES)
7.72 | O=C(c1ccc(Oc2nccnc2C2CCOCC2)cc1)c1nc2ncccc2[nH]1 [drawing 890]
0.489 | COc1cnccc1-c1nccnc1Oc1ccc(C(=O)c2nc3ccccc3[nH]2)cc1 [drawing 960]
37 | COC1CCN(c2nccnc2Oc2ccc(Nc3nc4ccccc4s3)cc2)CC1 [drawing 767]
1.43 | CN(C)CC(=O)N1CCC(c2nccnc2Oc2ccc(C(=O)c3nc4ccccc4[nH]3)cc2)CC1 [drawing 995]
0.59 | CC(=O)N1CCC(c2nccnc2Oc2ccc(Nc3nc4ccccc4s3)nc2)CC1 [drawing 992]
12.2 | COc1cncc(-c2nccnc2Oc2ccc(Nc3nc4ccccc4s3)cc2)c1 [drawing 918]
5.67 | Cc1cc(-c2nccnc2Oc2ccc(C(=O)c3nc4ccccc4[nH]3)cc2)ccn1 [drawing 726]
12.2 | FC1(c2nccnc2Oc2ccc(Nc3nc4ccccc4s3)cc2)CCOCC1 [drawing 927]
251 | CC(C)(C)OC(=O)N1CCC(CO)(c2nccnc2Oc2ccc(Nc3nc4ccccc4s3)cc2)CC1 [drawing 875]
0.902 | OC1(c2nccnc2Oc2ccc(Nc3nc4ccccc4s3)cc2)CCOCC1 [drawing 902]
5.83 | COc1ncccc1-c1nccnc1Oc1ccc(C(=O)c2nc3ccccc3n2CCF)cc1 [drawing 994]
0.0365 | COCC(=O)N1CCC(c2nccnc2Oc2ccc(C(=O)c3nc4ccccc4[nH]3)cc2)CC1 [drawing 945]
1.35 | COC(=O)[C@@H]1CCN(c2nccnc2Oc2ccc(C(=O)c3nc4ccccc4[nH]3)cc2)C1 [drawing 838]
187 | O=C(c1ccc(Oc2nccnc2OCC(F)(F)F)cc1)c1nc2ccccc2[nH]1 [drawing 847]
0.705 | CN(C)CC(=O)N1CCC(c2nccnc2Oc2ccc(Nc3nc4ccccc4s3)cc2)CC1 [drawing 996]
0.533 | COc1ccncc1-c1nccnc1Oc1ccc(C(=O)c2nc3ccccc3[nH]2)cc1 [drawing 990]
17.1 | C[C@H]1CN(c2nccnc2Oc2ccc(Nc3nc4ccccc4s3)cc2)CC(=O)N1 [drawing 835]

Continued, compound first:

Structure (SMILES) | IC50 [nM]
O=C(c1ccc(Oc2nccnc2N2CCC(CCO)CC2)cc1)c1nc2ccccc2[nH]1 | 4
Clc1nccnc1Oc1ccc(Nc2nc3ccccc3s2)cc1 | 603
COC(=O)[C@H]1CCN(c2nccnc2Oc2ccc(Nc3nc4ccccc4s3)cc2)C1 (stereo in doubt) | 23
COC[C@@H]1CCN(c2nccnc2Oc2ccc(Nc3nc4ccccc4s3)cc2)C1 (stereo in doubt) | 22.6
O=C(c1ccc(Oc2nccnc2N2CC[C@H](O)C2)cc1)c1nc2ccccc2[nH]1 | 5.12

Same assay, conditions: PDE10 enzyme inhibition; chiral compounds separated from racemic mixtures; read-out: IC50

Structure (SMILES) | IC50 [nM]
O=C(c1ccc(Oc2nccnc2[C@H]2CCC[C@@H](O)C2)cc1)c1nc2ccccc2[nH]1 [Example 270, (1H-benzo[d]imidazol-2-yl)(4-(3-((1S,3R)-3-hydroxycyclohexyl)pyrazin-2-yloxy)phenyl) methanone] | < 25
O=C1CCC[C@H](c2nccnc2Oc2ccc(Nc3nc4ccccc4s3)cc2)C1 [Example 282, (S)-3-(3-(4-(benzo[d]thiazol-2-ylamino)phenoxy)pyrazin-2-yl)cyclohexanone] | < 25
O=C(c1ccc(Oc2nccnc2[C@H]2CCC[C@H](O)C2)cc1)c1nc2ccccc2[nH]1 [Example 273, (1H-benzo[d]imidazol-2-yl)(4-(3-((1S,3S)-3-hydroxycyclohexyl)pyrazin-2-yloxy)phenyl) methanone] | < 25
C[C@H]1CN(c2nccnc2Oc2ccc(Nc3nc4ccccc4s3)cc2)CC(=O)N1 [Example 268, (S)-4-(3-(4-(benzo[d]thiazol-2-ylamino)phenoxy)pyrazin-2-yl)-6-methylpiperazin-2-one] | < 25
